Patent US8648076B2, “Cysteine protease inhibitors and their therapeutic applications” (Hybrigenics SA, priority 2005, dated 2014)
Like-named read-outs stand apart in the source and are kept apart here.

Experiments:
USP7 = target: T1, USP7 (Homo sapiens, UniProt Q93009); test: USP7 activity assay; format: biochemical
T1 construct: His tag (from pFastBac-HT vector) (N); made in house; host or cells: insect cells (Sf9 or High Five), baculovirus

[1] = test system: PC-3 prostate cancer cells; test: PC3 cell viability and proliferation assay (MTS); format: cell-based; details: Homo sapiens, PC-3, 72 h, read-out: PC3 D3 GI50
Uch-L3 = target: T2, Uch-L3 (Homo sapiens, UniProt P15374); test: UCH-L3 activity assay; format: biochemical; details: 400 nM Ub-AMC, 13 pM enzyme, 30 min pre-incubation at 25° C., 60 min at 37° C.; sigmoidal fit; AF: Autofluorescent; read-out: Uch-L3 (inhibition of cysteine protease activity)
T2 sequence (P15374 1-230): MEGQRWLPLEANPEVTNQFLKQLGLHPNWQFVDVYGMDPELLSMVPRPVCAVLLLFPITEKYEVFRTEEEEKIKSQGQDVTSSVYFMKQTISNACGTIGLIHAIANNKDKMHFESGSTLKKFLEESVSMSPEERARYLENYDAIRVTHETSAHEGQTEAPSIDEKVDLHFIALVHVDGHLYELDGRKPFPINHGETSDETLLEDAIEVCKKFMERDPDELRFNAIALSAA
Description: Bovine Serum Albumin 0.05 mg·ml^−1 pH7.6). Compounds stocks (100 mM) were stored at −20° C. in DMSO. […] Reactions were performed as duplicates in Black LJL 96 well plates (HE microplates; Molecular Devices; 20 μl final reaction volume). The substrate concentration for Uch-L3 was 400 nM Ub-AMC (Boston Biochem). The concentration of the enzyme (Uch-L3) in specificity assays was 13 pM. The concentrations were determined in order to perform specificity assays under initial velocities at fixed substrate concentration. Compounds were pre-incubated with enzymes for 30 minutes at 25° C. Reactions were initiated by addition of substrate to the plates containing the enzymes (+/−compounds) diluted in assay buffer. Reactions were incubated for 60 minutes at 37° C. Reactions were stopped by adding acetic acid (100 mM final). Readings were performed on a Pherastar Fluorescent Reader (BMG). δ Emission 380 nm; δ Excitation=460 nm. Data (mean values+/− standard deviation) were analyzed as % of control (no compound) and plotted as percentage versus the Log of the compound concentration using GraphPad (Prism). Data were fitted to a sigmoidal model (variable slope).

[2] = test system: HCT116 colon cancer cells; test: HCT116 cell viability and proliferation assay (MTS); format: cell-based; details: Homo sapiens, read-out: HCT116 D3 GI50
USP5 = target: T3, USP5 (Homo sapiens, UniProt P45974); test: USP5 activity assay; format: biochemical; details: 400 nM Ub-AMC, 300 pM enzyme, 30 min pre-incubation at 25° C., 60 min at 37° C.; sigmoidal fit; AF: Autofluorescent; read-out: USP 5 (inhibition of cysteine protease activity)
T3 sequence (P45974 1-858): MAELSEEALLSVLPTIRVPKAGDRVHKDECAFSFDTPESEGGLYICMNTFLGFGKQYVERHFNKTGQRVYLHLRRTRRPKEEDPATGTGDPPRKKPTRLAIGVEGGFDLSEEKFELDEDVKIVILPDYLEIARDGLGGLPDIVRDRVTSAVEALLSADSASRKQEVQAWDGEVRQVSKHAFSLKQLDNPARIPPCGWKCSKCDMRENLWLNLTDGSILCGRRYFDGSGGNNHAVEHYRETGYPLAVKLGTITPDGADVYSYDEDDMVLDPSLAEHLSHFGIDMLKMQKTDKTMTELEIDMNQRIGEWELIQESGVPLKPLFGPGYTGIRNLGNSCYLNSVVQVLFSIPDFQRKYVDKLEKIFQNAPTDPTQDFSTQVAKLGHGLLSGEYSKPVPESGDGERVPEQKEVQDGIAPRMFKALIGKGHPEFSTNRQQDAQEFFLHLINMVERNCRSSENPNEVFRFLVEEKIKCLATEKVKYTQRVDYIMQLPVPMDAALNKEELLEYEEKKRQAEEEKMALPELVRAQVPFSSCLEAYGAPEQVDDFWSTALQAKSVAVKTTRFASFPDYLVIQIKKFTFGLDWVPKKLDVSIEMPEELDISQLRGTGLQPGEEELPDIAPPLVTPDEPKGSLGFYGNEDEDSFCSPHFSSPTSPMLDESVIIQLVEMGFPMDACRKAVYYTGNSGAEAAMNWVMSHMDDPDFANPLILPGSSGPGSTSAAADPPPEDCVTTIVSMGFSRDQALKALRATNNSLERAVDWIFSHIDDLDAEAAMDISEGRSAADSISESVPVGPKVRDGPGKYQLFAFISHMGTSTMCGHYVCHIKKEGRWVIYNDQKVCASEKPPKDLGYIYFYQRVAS
Description: Bovine Serum Albumin 0.05 mg·ml^−1 pH7.6). Compounds stocks (100 mM) were stored at −20° C. in DMSO. […] Reactions were performed as duplicates in Black LJL 96 well plates (HE microplates; Molecular Devices; 20 μl final reaction volume). The substrate concentration for USP5 was 400 nM Ub-AMC (Boston Biochem). The concentrations of the enzyme (USP5) in specificity assays was 300 pM. The concentrations were determined in order to perform specificity assays under initial velocities at fixed substrate concentration. Compounds were pre-incubated with enzymes for 30 minutes at 25° C. Reactions were initiated by addition of substrate to the plates containing the enzymes (+/− compounds) diluted in assay buffer. Reactions were incubated for 60 minutes at 37° C. Reactions were stopped by adding acetic acid (100 mM final). Readings were performed on a Pherastar Fluorescent Reader (BMG). λ Emission 380 nm; λ Excitation=460 nm. Data (mean values +/− standard deviation) were analyzed as % of control (no compound) and plotted as percentage versus the Log of the compound concentration using GraphPad (Prism). Data were fitted to a sigmoidal model (variable slope).

[3] = 400 nM Ub-AMC, 152 pM enzyme, 30 min pre-incubation at 25° C., 60 min at 37° C., sigmoidal fit, read-out: USP 7 (inhibition of cysteine protease activity)
[4] = PC3 cells, 72 hours incubation, MTS, mean of 3 independent experiments
[5] = HCT-116, HCT116 cells, 72 hours incubation, MTS, mean of 3 independent experiments

T1 sequence (Q93009 whole entry): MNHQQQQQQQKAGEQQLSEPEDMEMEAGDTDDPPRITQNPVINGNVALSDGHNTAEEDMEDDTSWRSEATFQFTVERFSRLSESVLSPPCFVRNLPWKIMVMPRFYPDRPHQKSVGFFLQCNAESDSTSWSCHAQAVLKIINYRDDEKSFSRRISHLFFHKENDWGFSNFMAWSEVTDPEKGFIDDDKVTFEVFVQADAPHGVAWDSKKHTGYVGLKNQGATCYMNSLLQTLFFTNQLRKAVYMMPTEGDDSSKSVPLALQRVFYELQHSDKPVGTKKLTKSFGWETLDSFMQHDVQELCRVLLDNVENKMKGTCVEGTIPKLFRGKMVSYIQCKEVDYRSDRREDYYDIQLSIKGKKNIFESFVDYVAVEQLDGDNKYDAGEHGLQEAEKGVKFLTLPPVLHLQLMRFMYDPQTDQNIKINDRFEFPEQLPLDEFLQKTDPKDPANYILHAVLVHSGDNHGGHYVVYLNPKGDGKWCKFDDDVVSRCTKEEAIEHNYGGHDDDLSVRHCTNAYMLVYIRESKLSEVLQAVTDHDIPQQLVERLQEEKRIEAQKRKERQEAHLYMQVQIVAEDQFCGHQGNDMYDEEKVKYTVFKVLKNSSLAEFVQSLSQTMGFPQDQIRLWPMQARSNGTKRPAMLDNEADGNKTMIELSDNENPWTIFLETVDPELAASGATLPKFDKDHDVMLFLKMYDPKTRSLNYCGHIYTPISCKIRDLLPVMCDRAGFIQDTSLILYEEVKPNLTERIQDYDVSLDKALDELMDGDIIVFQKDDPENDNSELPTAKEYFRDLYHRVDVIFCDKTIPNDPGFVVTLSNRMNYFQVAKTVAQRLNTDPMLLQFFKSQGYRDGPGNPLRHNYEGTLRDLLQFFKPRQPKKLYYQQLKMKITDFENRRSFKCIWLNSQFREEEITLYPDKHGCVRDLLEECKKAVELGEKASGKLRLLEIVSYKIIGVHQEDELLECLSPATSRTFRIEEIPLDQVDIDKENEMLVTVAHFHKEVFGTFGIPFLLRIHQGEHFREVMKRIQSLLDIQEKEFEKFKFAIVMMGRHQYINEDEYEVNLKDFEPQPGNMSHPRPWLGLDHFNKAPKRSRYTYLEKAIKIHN

SMILES	IC50 (USP7) [µM]	GI50 [1] [µM]	IC50 (Uch-L3) [µM]	GI50 ([2]; HCT-116, 72 h) [µM]	IC50 (USP5) [µM]	IC50 (USP7; [3]) [µM]	GI50 [1, 4] [µM]	GI50 [2, 5] [µM]
N#Cc1nc2c(nc1C#N)C(=O)c1ccccc1C2=O [Example 20, 5,10-dioxo-5,10-dihydro-benzo[g]quinoxaline-2,3-dicarbonitrile]	> 100	1.26	39.6	0.78	> 100			
N#Cc1nc2c(nc1O)-c1ccccc1C2=O [Example 6, 3-hydroxy-9-oxo-9H-indeno[1,2-b]pyrazine-2-carbonitrile]			1.1		9.1	21.8	> 10	> 10
N#Cc1nc2c(nc1C#N)-c1ccccc1C2=NOCCOc1ccccc1 [Example 27a, 9-(2-Phenoxy-ethoxyimino)-9H-indeno[1,2-b]pyrazine-2,3-dicarbonitrile]	> 100	1	10.5	0.549	> 100			
CCOC(=O)CO/N=C1\c2ccccc2-c2nc(C(N)=O)c(C#N)nc21 [Example 37, (3-carbamoyl-2-cyano-indeno[1,2-b]pyrazin-9-ylideneaminooxy)-acetic acid ethyl ester]			0.393		0.799	2.33		0.652
N#Cc1nc2c(nc1C(N)=O)-c1ccccc1/C2=N\OCC(=O)NCC(=O)O [Example 41, [2-(3-carbamoyl-2-cyano-indeno[1,2-b]pyrazin-9-ylideneaminooxy)-acetylamino]-acetic acid]	4.28		0.328	> 10	1.89			
N#Cc1nc2c(nc1C#N)-c1ccc(Cl)cc1C2=NNC(N)=O [Example 43, 9-[(aminocarbonyl)hydrazono]-7-chloro-9H-indeno[1,2-b]pyrazine-2,3-dicarbonitrile]	> 100	0.655	13.5	0.512	> 100			
N#Cc1nc2c(nc1C(N)=O)-c1ccccc1/C2=N\OCC(=O)O [Example 38, (3-carbamoyl-2-cyano-indeno[1,2-b]pyrazin-9-ylideneaminooxy)-acetic acid]	4.03		0.758	> 10	1.85			
CCOC(=O)CNC(=O)CO/N=C1\c2ccccc2-c2nc(C(N)=O)c(C#N)nc21 [Example 40, [2-(3-carbamoyl-2-cyano-indeno[1,2-b]pyrazin-9-ylideneaminooxy)-acetylamino]-acetic acid ethyl ester]			0.245		1.13	2.8		4.6
COc1ccc2c(c1)-c1nc(C#N)c(C#N)nc1C2=O [Example 17a, 6-Methoxy-9-oxo-9H-indeno[1,2-b]pyrazine-2,3-dicarbonitrile]			7		29	> 100	1.4	0.61
Cc1cccc2c1Cc1nc(C#N)c(C#N)nc1-2 [Example 16c, 8-Methyl-9H-indeno[1,2-b]pyrazine-2,3-dicarbonitrile]			> 100		> 100	> 100	3.37	1.47
COc1cc2c(cc1OC)-c1nc(C#N)c(C#N)nc1C2=O [Example 17b, 6,7-Dimethoxy-9-oxo-9H-indeno[1,2-b]pyrazine-2,3-dicarbonitrile]			5.4		> 100	10.2	0.92	0.53
N#Cc1nc2c(nc1O)-c1ccc(Cl)cc1C2=O [Example 42, 7-chloro-3-hydroxy-9-oxo-9H-indeno[1,2-b]pyrazine-2-carbonitrile]	> 100	> 10	> 100	> 10	> 100			
N#Cc1nc2c(nc1C(N)=O)-c1ccccc1C2=O [Example 36, 2-cyano-9-oxo-9H-indeno[1,2-b]pyrazine-3-carboxylic acid amide]	1.27		0.178	4.25	0.208			
CC(=O)O/N=C1\c2ccccc2-c2nc(C(N)=O)c(C#N)nc21 (single isomer, unassigned) [Example 35, 2-cyano-9-acetoxyimino-9H-indeno[1,2-b]pyrazine-3-carboxylic acid amide]	0.506	1.28	0.048	1.35	0.161			
N#Cc1nc2c(nc1N1CCC(F)(F)CC1)-c1ccccc1C2=O [Example 8, 3-(4,4-difluoro-piperidin-1-yl)-9-oxo-9H-indeno[1,2-b]-pyrazine-2-carbonitrile]			> 100		> 100	> 100	> 10	> 10
N#Cc1nc2c(nc1Cl)-c1ccccc1C2=O [Example 9, 3-chloro-9-oxo-9H-indeno[1,2-b]pyrazine-2-carbonitrile]			8.8		> 100	> 100	> 10	> 10
N#Cc1nc2c(nc1C#N)-c1ccc(Cl)cc1C2=O [Example 17g, 7-Chloro-9-oxo-9H-indeno[1,2-b]pyrazine-2,3-dicarbonitrile]			0.07		0.16	0.53	1.11	0.32
N#Cc1nc2sc3ccccc3c2nc1C#N [Example 19, benzo[4,5]thieno[2,3-b]pyrazine-2,3-dicarbonitrile]			> 100		> 100	> 100	4.2	10
N#Cc1nc2c(nc1C#N)C1(OCCO1)c1ccccc1-2 [Example 10]			20		> 100		4.4	3.4
CCO/C(O)=C(\C#N)c1nc2c(nc1C#N)C(=O)c1ccccc1-2 [Example 22, 3-(1-cyano-2-ethoxy-2-hydroxy-vinyl)-9-oxo-9H-indeno[1,2-b]pyrazine-2-carbonitrile]			22		> 100		> 10	> 10
